pIC50: −log10 of the molar value.
How the values were obtained:
NCI-H3122 = assay: Antiproliferative activity against human NCI-H3122 cells assessed as inhibition of cell growth incubated for 48 to 72 hrs by MTT assay; format: functional, cell-based
HeLa [1] = assay: Antiproliferative activity against human HeLa cells assessed as inhibition of cell growth incubated for 48 to 72 hrs by MTT assay; format: functional, cell-based
SW-620 [2] = assay: Antiproliferative activity against human SW620 cells assessed as inhibition of cell growth incubated for 48 to 72 hrs by MTT assay; format: functional, cell-based
HeLa [3] = assay: Inhibition of colony formation in human HeLa cells assessed as reduction in colony forming ability incubated for 15 days by crystal violet staining based analysis; format: functional, cell-based; settings: dose 0.15625-1.25 µM, time 15.0 day, DDE = dose-dependent effect
SW-620 [4] = assay: Inhibition of colony formation in human SW620 cells assessed as reduction in colony forming ability incubated for 15 days by crystal violet staining based analysis; format: functional, cell-based; settings: dose 0.15625-1.25 µM, time 15.0 day, DDE = dose-dependent effect
SW-620 [5] = assay: Inhibition of colony formation in human SW620 cells assessed as reduction in colony forming ability at 1.25 uM incubated for 15 days by crystal violet staining based analysis; format: functional; settings: SW-620, 360 h, time 15 day
HeLa [6] = assay: Induction of apoptosis in human HeLa cells assessed as early apoptotic cells at 0.3125 uM incubated for 36 hrs by Annexin V-FITC/PI staining based flow cytometric analysis (reference value: 2.02 %); format: functional
HeLa [7] = assay: Induction of apoptosis in human HeLa cells assessed as viable cells at 0.625 uM incubated for 36 hrs by Annexin V-FITC/PI staining based flow cytometric analysis (reference value: 96.14 %); format: functional; settings: read-out: Activity
HeLa [8] = assay: Induction of apoptosis in human HeLa cells assessed as early apoptotic cells at 0.625 uM incubated for 36 hrs by Annexin V-FITC/PI staining based flow cytometric analysis (reference value: 2.02 %); format: functional
HeLa [9] = assay: Induction of apoptosis in human HeLa cells assessed as early apoptotic cells at 1.25 uM incubated for 36 hrs by Annexin V-FITC/PI staining based flow cytometric analysis (reference value: 2.02 %); format: functional
HeLa [10] = assay: Induction of apoptosis in human HeLa cells assessed as late apoptotic cells at 1.25 uM incubated for 36 hrs by Annexin V-FITC/PI staining based flow cytometric analysis (reference value: 1.4 %); format: functional
HeLa [11] = assay: Induction of apoptosis in human HeLa cells assessed as early apoptotic cells at 2.5 uM incubated for 36 hrs by Annexin V-FITC/PI staining based flow cytometric analysis (reference value: 2.02 %); format: functional
HeLa [12] = assay: Induction of apoptosis in human HeLa cells assessed as dead cells at 2.5 uM incubated for 36 hrs by Annexin V-FITC/PI staining based flow cytometric analysis (reference value: 0.44 %); format: functional
HeLa [13] = assay: Inhibition of PI3K/mTOR signalling pathway in human HeLa cells assessed as inhibition of Akt phosphorylation at Ser473 residue incubated for 24 hrs by Western blot analysis; format: cell-based; settings: dose 0.3125-2.5 µM, DDE = dose-dependent effect
HeLa [14] = assay: Induction of cell cycle arrest in human HeLa cells assessed as accumulation of cells at G0/G1 phase measured after 24 hrs by propidium iodide staining based flow cytometry analysis; format: functional; settings: dose 0.15625-2.5 µM, DDE = dose-dependent effect
[15] = Volume of distribution at steady state in Sprague-Dawley rat at 1 mg/kg, iv measured for 24 hrs by LC-MS/MS analysis; format: ADME, organism-based; settings: in vivo, read-out: Vdss
HeLa [16] = assay: Antitumor activity against human HeLa cells xenografted in BALB/c nude mouse assessed as tumor growth inhibition at 30 mg/kg, IG administered daily for 30 days and measured every 2 days relative to control; format: functional; settings: po, 720 h, time 30 day, read-out: TGI
[17] = Toxicity in BALB/c nude mouse xenografted with human SW620 cells assessed as reduction in body weight at 15 to 60 mg/kg, IG administered daily for 30 days and measured every 2 days; format: organism-based, SW-620; settings: in vivo, po, 720 h, dose 15-60 mg/kg, time 30 day
[18] = Toxicity in BALB/c nude mouse xenografted with human HeLa cells assessed as pathological changes in liver at 60 mg/kg, IG administered daily for 30 days by hematoxylin and eosin staining based microscopic analysis; format: organism-based; settings: in vivo, po, 720 h, time 30 day
[19] = Toxicity in BALB/c nude mouse xenografted with human HeLa cells assessed as pathological changes in kidney at 60 mg/kg, IG administered daily for 30 days by hematoxylin and eosin staining based microscopic analysis; format: organism-based; settings: in vivo, po, 720 h, time 30 day
[20] = biological target: Phosphatidylinositol 4,5-bisphosphate 3-kinase catalytic subunit gamma isoform (Homo sapiens, UniProt P48736); assay: Inhibition of PI3Kgamma (unknown origin) using L-alpha-phosphatidylinositol as substrate incubated for 120 mins in presence of ATP by Kinase Glo luminescence assay
Sequence of Phosphatidylinositol 4,5-bisphosphate 3-kinase catalytic subunit gamma isoform (P48736 whole entry, canonical isoform): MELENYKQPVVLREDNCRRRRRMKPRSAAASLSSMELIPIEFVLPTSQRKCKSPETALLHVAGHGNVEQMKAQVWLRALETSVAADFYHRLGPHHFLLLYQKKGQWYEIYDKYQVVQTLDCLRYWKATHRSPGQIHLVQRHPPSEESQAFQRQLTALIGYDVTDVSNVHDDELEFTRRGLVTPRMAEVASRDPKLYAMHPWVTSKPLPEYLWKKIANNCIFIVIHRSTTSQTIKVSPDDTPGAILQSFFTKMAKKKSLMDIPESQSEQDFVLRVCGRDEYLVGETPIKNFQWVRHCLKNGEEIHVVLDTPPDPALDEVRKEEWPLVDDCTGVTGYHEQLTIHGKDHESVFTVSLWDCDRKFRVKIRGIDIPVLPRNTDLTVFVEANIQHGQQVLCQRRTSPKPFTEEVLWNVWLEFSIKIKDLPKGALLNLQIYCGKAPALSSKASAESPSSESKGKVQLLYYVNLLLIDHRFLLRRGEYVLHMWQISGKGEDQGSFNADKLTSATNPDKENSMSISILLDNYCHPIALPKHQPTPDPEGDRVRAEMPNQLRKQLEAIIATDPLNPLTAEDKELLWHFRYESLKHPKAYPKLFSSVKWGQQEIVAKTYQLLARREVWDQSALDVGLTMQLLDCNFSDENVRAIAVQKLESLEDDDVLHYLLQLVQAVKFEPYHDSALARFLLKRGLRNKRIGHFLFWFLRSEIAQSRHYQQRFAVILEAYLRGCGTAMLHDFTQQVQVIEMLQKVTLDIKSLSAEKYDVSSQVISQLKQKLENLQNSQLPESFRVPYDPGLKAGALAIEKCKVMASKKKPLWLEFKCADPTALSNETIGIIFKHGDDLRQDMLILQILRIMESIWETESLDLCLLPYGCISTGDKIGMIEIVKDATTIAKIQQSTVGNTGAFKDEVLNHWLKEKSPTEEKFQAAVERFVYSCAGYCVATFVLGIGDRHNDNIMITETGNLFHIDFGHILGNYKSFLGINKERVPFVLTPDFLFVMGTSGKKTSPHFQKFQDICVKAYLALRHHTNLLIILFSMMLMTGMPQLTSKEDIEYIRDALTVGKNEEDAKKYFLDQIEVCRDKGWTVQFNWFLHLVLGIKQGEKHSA

[21] = biological target: T1, Phosphatidylinositol 4,5-bisphosphate 3-kinase catalytic subunit delta isoform (Homo sapiens, UniProt O00329); assay: Inhibition of PI3Kdelta (unknown origin) using L-alpha-phosphatidylinositol as substrate incubated for 60 mins in presence of ATP by Kinase Glo luminescence assay
T1 sequence (O00329 whole entry): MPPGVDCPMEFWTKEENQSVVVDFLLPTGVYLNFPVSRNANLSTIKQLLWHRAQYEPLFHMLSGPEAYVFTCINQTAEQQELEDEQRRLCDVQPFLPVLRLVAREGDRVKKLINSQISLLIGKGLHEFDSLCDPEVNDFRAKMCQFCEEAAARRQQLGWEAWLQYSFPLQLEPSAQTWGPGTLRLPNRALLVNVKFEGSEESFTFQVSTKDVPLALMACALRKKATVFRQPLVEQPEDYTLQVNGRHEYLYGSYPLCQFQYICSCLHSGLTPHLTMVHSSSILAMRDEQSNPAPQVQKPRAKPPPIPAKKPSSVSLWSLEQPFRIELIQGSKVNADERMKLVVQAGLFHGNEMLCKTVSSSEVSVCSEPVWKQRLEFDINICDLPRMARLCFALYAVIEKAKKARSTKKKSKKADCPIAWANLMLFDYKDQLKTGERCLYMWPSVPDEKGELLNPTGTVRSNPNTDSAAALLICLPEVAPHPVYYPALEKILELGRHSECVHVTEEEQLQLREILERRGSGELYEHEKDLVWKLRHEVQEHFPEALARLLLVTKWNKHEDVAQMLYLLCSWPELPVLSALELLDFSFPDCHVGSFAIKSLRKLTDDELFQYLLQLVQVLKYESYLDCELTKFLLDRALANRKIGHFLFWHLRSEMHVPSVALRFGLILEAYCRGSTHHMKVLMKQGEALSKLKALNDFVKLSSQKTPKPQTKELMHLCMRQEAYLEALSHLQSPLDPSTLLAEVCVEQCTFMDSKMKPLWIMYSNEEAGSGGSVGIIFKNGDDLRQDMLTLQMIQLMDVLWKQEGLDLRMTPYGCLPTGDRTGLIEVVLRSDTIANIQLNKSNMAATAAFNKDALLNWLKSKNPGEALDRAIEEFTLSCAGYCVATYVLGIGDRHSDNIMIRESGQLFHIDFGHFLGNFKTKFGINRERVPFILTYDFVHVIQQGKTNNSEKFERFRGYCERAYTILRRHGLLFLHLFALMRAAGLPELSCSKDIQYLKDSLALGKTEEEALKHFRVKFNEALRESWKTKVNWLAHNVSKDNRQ

## Cc1nc2cnc3ccc(-c4cnc5[nH]ccc5c4)cc3c2n1-c1ccc(C(C)(C)C#N)nc1
NCI-H3122
  pIC50: 6.54
HeLa [1]
  pIC50: 7.05
SW-620 [2]
  pIC50: 6.80
HeLa [3]
  inhibition: Dde
SW-620 [4]
  inhibition: Dde
SW-620 [5]
  inhibition at 1.25 µM: 100%
HeLa [6]
  Activity: 6.23%
HeLa [7]
  viability at 0.625 µM: 70.1%
HeLa [8]
  Activity: 18.32%
HeLa [9]
  Activity: 26.11%
HeLa [10]
  Activity: 23.32%
HeLa [11]
  Activity: 27.18%
HeLa [12]
  Activity: 6.13%
HeLa [13]
  inhibition: Dde
HeLa [14]
  Activity: Dde
[15]
  Vd: 1.53 L/kg
HeLa [16]
  inhibition in vivo at 30 mg/kg: 73.5%
[17]
  Activity: Non-Toxic
[18]
  Activity: Non-Toxic
[19]
  Activity: Non-Toxic
[20]
  pIC50: 8.30
[21]
  pIC50: 8.15

Reference: ChEMBL document CHEMBL5108059, “Discovery of 2-Methyl-2-(4-(2-methyl-8-(1H-pyrrolo[2,3-b]pyridin-6-yl)-1H-naphtho[1,2-d]imidazol-1-yl)phenyl)propanenitrile as a Novel PI3K/mTOR Inhibitor with Enhanced Antitumor Efficacy In Vitro and In Vivo” (J Med Chem, 2022)
